In test [1] the target is T1, batroxobin fibrin monomer (Homo sapiens, UniProt P02671+P02675+P02679).
T1 construct: fibrin monomer which was formed by batroxobin (lacking fibrinopeptide A); made in house; host or cells: not recombinant: made from fibrinogen by treatment with batroxobin (Bothrops atrox venom enzyme)
T1 sequence (P02671 36-629 isoform P02671-2): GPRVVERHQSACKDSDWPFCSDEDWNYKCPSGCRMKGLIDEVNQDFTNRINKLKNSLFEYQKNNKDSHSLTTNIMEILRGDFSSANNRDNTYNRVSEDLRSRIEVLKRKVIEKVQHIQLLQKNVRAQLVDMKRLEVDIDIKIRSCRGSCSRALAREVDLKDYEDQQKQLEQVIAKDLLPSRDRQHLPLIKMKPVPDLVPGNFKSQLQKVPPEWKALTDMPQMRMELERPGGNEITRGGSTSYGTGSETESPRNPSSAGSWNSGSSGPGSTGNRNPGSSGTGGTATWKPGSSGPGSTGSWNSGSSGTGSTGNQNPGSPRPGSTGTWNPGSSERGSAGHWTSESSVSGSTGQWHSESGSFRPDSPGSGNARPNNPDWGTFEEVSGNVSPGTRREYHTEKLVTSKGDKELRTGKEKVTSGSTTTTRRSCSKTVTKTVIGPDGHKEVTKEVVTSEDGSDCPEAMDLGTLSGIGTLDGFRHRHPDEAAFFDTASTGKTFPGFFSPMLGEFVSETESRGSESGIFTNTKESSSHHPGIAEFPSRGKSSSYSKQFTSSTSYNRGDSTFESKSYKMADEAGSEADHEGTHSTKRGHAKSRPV
T1 sequence (P02675 31-491): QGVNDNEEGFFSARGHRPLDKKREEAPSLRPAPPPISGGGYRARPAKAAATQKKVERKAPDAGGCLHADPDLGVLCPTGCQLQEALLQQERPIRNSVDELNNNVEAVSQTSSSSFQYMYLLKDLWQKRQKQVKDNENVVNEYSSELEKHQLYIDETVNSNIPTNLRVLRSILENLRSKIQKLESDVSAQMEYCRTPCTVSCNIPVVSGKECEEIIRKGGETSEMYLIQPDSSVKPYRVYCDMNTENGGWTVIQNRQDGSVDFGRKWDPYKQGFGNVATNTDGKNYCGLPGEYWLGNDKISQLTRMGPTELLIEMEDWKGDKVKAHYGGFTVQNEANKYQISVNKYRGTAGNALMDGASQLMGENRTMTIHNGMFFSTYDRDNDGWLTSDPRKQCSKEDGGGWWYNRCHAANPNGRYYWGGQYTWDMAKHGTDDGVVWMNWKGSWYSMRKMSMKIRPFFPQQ
T1 sequence (P02679 27-437 isoform P02679-2): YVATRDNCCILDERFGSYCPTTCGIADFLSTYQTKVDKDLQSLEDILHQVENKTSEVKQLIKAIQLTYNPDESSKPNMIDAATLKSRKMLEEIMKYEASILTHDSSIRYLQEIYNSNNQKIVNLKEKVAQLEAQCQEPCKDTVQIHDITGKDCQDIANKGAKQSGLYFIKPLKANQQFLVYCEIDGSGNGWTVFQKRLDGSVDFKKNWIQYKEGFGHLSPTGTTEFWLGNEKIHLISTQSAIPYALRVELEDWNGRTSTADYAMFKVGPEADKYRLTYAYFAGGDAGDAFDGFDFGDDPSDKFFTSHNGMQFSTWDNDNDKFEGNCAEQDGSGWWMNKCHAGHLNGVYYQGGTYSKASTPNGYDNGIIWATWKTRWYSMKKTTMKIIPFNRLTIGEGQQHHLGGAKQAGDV
The test is described as follows: Inhibition of fibrin monomer polymerization (absorbance at 350 nm), batroxobin fibrin monomer. The test is classed as biochemical. On the procedure: Fibrin monomer was prepared according to the method of Belitser et al, Biochem. Biophys. Acta 154, 367-375 (1968) using either thrombin or batroxobin (an enzyme from the venom of Bothrops atrox). The polymerization of fibrin monomer which was formed by batroxobin (lacking fibrinopeptide A) or by thrombin (lacking fibrinopeptides A and B) was inhibited by D1 Peptide. Polymerization was measured spectrophotometrically at 350 nm as has been described in Budzynski, Biochem. Biophys. Acta 584, 284-287 (1979). […] At zero time the recorder was started and 0.01 ml of fibrin monomer (1.5 mg/ml in 0.02M acetic acid) was added, the cells were inverted, and the increase in absorbance at 350 nm was measured continuously for 15 min or until plateau levels were reached. For batroxobin fibrin monomer 0.15 ml of buffer or buffer containing D1 Peptide was mixed with 0.05 ml of batroxobin fibrin monomer (1.5 mg/ml in 0.02M acetic acid). The initial rate of polymerization was calculated from the slope of the steepest part of the curve and expressed as the increase in absorbance per min (A350 ·min^-1).
In order to assess the effect of D1 Peptide on fibrin monomer polymerization over a wide range of concentrations, batroxobin fibrin monomer concentration was varied from 3.3×10^-8 M to 1.75×10^-7 M and the maximum rate of polymerization measured in the absence or presence of 2.5×10^-7 M D1 Peptide (FIG. 5). […]

In test [2] the target is T1, batroxobin fibrin monomer. The test is described as follows: Sephadex gel equilibrium binding, batroxobin fibrin monomer. The conditions noted are these: 17 experiments, mean and standard deviation. On the procedure: Acta 133, 376-379 (1979).
The purification of NDSK involves incubation of fibrinogen in cyanogen bromide in the presence of 70% formic acid. This treatment may alter the binding sites. Therefore, an attempt was made to reproduce the data using fibrin monomer instead of thrombin-treated NDSK. A major difficulty, the self-polymerization of fibrin monomer, was overcome by using high molar ratios of D1 Peptide to fibrin monomer. However, in this situation the concentration of D1 Peptide could be varied only over a small range of concentrations. D1 Peptide was added to the Sephadex gel equilibrium system and incubated for 10 min., then soluble fibrin monomer was added in a molar excess of D1 Peptide to fibrin monomer of 100-1000 fold. Under these conditions the lag time in the fibrin monomer polymerization was more than 30 min.
In experiments using thrombin fibrin monomer the number of binding sites for D1 Peptide was 1.82±0.26 (15 experiments, mean and standard deviation). For batroxobin fibrin monomer the number of binding sites was 1.91±0.24 (17 experiments, mean and standard deviation).

Peptide text beside a SMILES is read from it.

Regarding `CC[C@H](C)[C@H](NC(=O)[C@H](CCCCN)NC(=O)[C@H](CCSC)NC(=O)[C@@H](NC(=O)[C@@H](NC(=O)[C@H](CCCCN)NC(=O)[C@H](CCCCN)NC(=O)[C@H](CCSC)NC(=O)[C@H](CO)NC(=O)[C@H](Cc1ccc(O)cc1)NC(=O)[C@H](Cc1c[nH]c2ccccc12)NC(=O)[C@H](CCCNC(=N)N)NC(=O)[C@@H](N)[C@@H](C)O)[C@@H](C)O)[C@@H](C)O)C(=O)N[C@H](C(=O)N1CCC[C@H]1C(=O)N[C@@H](Cc1ccccc1)C(=O)N[C@@H](CC(N)=O)C(=O)N[C@@H](CCCNC(=N)N)C(=O)N[C@@H](CC(C)C)C(=O)N[C@H](C(=O)N[C@H](C(=O)NCC(=O)N[C@@H](CCC(=O)O)C(=O)NCC(=O)N[C@@H](CCC(N)=O)C(=O)N[C@@H](CCC(N)=O)C(=O)N[C@@H](Cc1c[nH]cn1)C(=O)N[C@@H](Cc1c[nH]cn1)C(=O)N[C@@H](CC(C)C)C(=O)NCC(=O)NCC(=O)N[C@@H](C)C(=O)N[C@@H](CCCCN)C(=O)N[C@@H](CCC(N)=O)C(=O)N[C@@H](C)C(=O)NCC(=O)N[C@@H](CC(=O)O)C(=O)N[C@H](C(=O)O)C(C)C)[C@@H](C)CC)[C@@H](C)O)[C@@H](C)CC` [D1 Peptide] (H-TRWYSMKKTTMKIIPFNRLTIGEGQQHHLGGAKQAGDV-OH), the “mode of inhibition of polymerization” value in test [1] (batroxobin fibrin monomer 3.3×10^-8 M to 1.75×10^-7 M) was “competitive inhibitor”. Further, in test [1] (maximum rate 0.2 A350·min^-1, D1 Peptide 2.6×10^-7 M, 7.8×10^-8 M without peptide), the “concentration of fibrin monomer necessary to achieve the same rate of polymerization (apparent [FM])” value is 142 nM. Moreover, the “number of binding sites for D1 Peptide” value in test [2] stood at 1.91±0.24.

The record behind these values is US4455290A, “Inhibition of fibrin polymerization by a peptide isolated from fibrin Fragment D1” (Research Corporation, priority 1981, dated 1984).
